Measured values from patent US20120270819A1, “USE OF COMPOUNDS WITH SGLT-1/SGLT-2 INHIBITOR ACTIVITY FOR PRODUCING MEDICAMENTS FOR TREATMENT OF BONE DISEASE” (SANOFI, priority 2009, published 2012).

Test system: female Sprague-Dawley mature and young adult rats
Assay: Ex vivo pQCT of L3 and L4 lumbar vertebrae
Type: in vivo, rat
Settings: L3 + L4 vertebral bodies; for pQCT Total Area / pQCT Total BMC / pQCT Total BMD / pQCT Trabecular Area / pQCT Trabecular BMC / pQCT Trabecular BMD: mean
Method: Peripheral QCT scans were performed ex vivo using an XCT Research SA or SA+ bone scanner with software version 5.50D. Scans were obtained for the right femur, L3 and L4 lumbar vertebra for all animals euthanized at the end of the treatment period as well as two found dead animals. These two animals were scanned twice due to technical oversight, however only the first scans obtained were reported and the second scans were kept with the study file, this had no impact on the study as both scans were considered equivalent.
For the vertebrae, the scans were obtained at the midpoint. The L3 vertebrae from four animal and L4 vertebrae from four animals were damaged at trimming and L4 vertebrae from one animal was lost during trimming, consequently, no scans were obtained on these vertebrae. Additional slices were obtained as considered appropriate to ensure the optimal scans and data acquisition.
All analyses were performed using the LOOP option of the analysis software. All other data generated as a result of the LOOP option were retained with the raw data but not reported. The most appropriate analysis mode for the femur and the lumbar vertebrae was used and documented in the raw data and the analysis details are presented in Table 6. All scan analysis data was retained and re-analyses documented.

Structure (SMILES): COc1ccc(Cc2c(OC3OC(CO)C(F)C(O)C3O)n[nH]c2C(F)(F)F)cc1 (stereo not drawn) [Example 5 of formula II]
- pQCT Total Area, percent difference from Vehicle Control (mature adults, 10 mg/kg/day): 2.3%
- pQCT Total BMC, percent difference from Vehicle Control (mature adults, 10 mg/kg/day): 5.9%
- pQCT Total BMD, percent difference from Vehicle Control (mature adults, 10 mg/kg/day): 3.6%
- pQCT Trabecular Area, percent difference from Vehicle Control (mature adults, 10 mg/kg/day): 2.4%
- pQCT Trabecular BMC, percent difference from Vehicle Control (mature adults, 10 mg/kg/day): 9.0%
- pQCT Trabecular BMD, percent difference from Vehicle Control (mature adults, 10 mg/kg/day): 6.9%
- pQCT Total Area (mature adults, 10 mg/kg/day): 7.7 mm^2
- pQCT Total BMC (mature adults, 10 mg/kg/day): 5.6 mg/mm
- pQCT Total BMD (mature adults, 10 mg/kg/day): 727.9 mg/cm^3
- pQCT Trabecular Area (mature adults, 10 mg/kg/day): 3.5 mm^2
- pQCT Trabecular BMC (mature adults, 10 mg/kg/day): 1.7 mg/mm
- pQCT Trabecular BMD (mature adults, 10 mg/kg/day): 486.9 mg/cm^3
- pQCT Total Area, percent difference from Vehicle Control (mature adults, 50 mg/kg/day): 7.4%
- pQCT Total BMC, percent difference from Vehicle Control (mature adults, 50 mg/kg/day): 12.4%
- pQCT Total BMD, percent difference from Vehicle Control (mature adults, 50 mg/kg/day): 4.5%
- pQCT Trabecular Area, percent difference from Vehicle Control (mature adults, 50 mg/kg/day): 7.5%
- pQCT Trabecular BMC, percent difference from Vehicle Control (mature adults, 50 mg/kg/day): 15.1%
- pQCT Trabecular BMD, percent difference from Vehicle Control (mature adults, 50 mg/kg/day): 6.8%
- pQCT Total Area (mature adults, 50 mg/kg/day): 8.1 mm^2
- pQCT Total BMC (mature adults, 50 mg/kg/day): 5.9 mg/mm
- pQCT Total BMD (mature adults, 50 mg/kg/day): 734.0 mg/cm^3
- pQCT Trabecular Area (mature adults, 50 mg/kg/day): 3.6 mm^2
- pQCT Trabecular BMC (mature adults, 50 mg/kg/day): 1.8 mg/mm
- pQCT Trabecular BMD (mature adults, 50 mg/kg/day): 486.4 mg/cm^3
- pQCT Total Area, percent difference from Vehicle Control (young adults, 10 mg/kg/day): 1.7%
- pQCT Total BMC, percent difference from Vehicle Control (young adults, 10 mg/kg/day): 8.5%
- pQCT Total BMD, percent difference from Vehicle Control (young adults, 10 mg/kg/day): 6.9%
- pQCT Trabecular Area, percent difference from Vehicle Control (young adults, 10 mg/kg/day): 1.6%
- pQCT Trabecular BMC, percent difference from Vehicle Control (young adults, 10 mg/kg/day): 10.5%
- pQCT Trabecular BMD, percent difference from Vehicle Control (young adults, 10 mg/kg/day): 8.9%
- pQCT Total Area (young adults, 10 mg/kg/day): 7.4 mm^2
- pQCT Total BMC (young adults, 10 mg/kg/day): 4.9 mg/mm
- pQCT Total BMD (young adults, 10 mg/kg/day): 659.9 mg/cm^3
- pQCT Trabecular Area (young adults, 10 mg/kg/day): 3.4 mm^2
- pQCT Trabecular BMC (young adults, 10 mg/kg/day): 1.6 mg/mm
- pQCT Trabecular BMD (young adults, 10 mg/kg/day): 461.6 mg/cm^3
- pQCT Total Area, percent difference from Vehicle Control (young adults, 50 mg/kg/day): −5.1%
- pQCT Total BMC, percent difference from Vehicle Control (young adults, 50 mg/kg/day): 2.7%
- pQCT Total BMD, percent difference from Vehicle Control (young adults, 50 mg/kg/day): 8.6%
- pQCT Trabecular Area, percent difference from Vehicle Control (young adults, 50 mg/kg/day): −5.0%
- pQCT Trabecular BMC, percent difference from Vehicle Control (young adults, 50 mg/kg/day): 2.7%
- pQCT Trabecular BMD, percent difference from Vehicle Control (young adults, 50 mg/kg/day): 8.9%
- pQCT Total Area (young adults, 50 mg/kg/day): 6.9 mm^2
- pQCT Total BMC (young adults, 50 mg/kg/day): 4.7 mg/mm
- pQCT Total BMD (young adults, 50 mg/kg/day): 670.6 mg/cm^3
- pQCT Trabecular Area (young adults, 50 mg/kg/day): 3.1 mm^2
- pQCT Trabecular BMC (young adults, 50 mg/kg/day): 1.4 mg/mm
- pQCT Trabecular BMD (young adults, 50 mg/kg/day): 461.9 mg/cm^3
